pIC50: −log10 of the molar value.
Tests used:
MSTO-211H cells = assay: Proliferation Assay (CellTiter-Glo Luminescent Cell Viability Assay); assay type: cell-based; settings: Homo sapiens, 96 hours treatment
How it was run: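 MSTO-211H cells, 1,500/well in RPMI 1640 with 10% FBS, plated overnight, then treated 96 h with 9-point 3-fold compound series in duplicate (DMSO below 0.5%). Viability by CellTiter-Glo luminescence; inhibition relative to DMSO wells, IC50 by four-parameter fit.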

[1] = molecular target: TEAD1(210-426) binding to YAP(50-100) (Homo sapiens, UniProt P28347); assay: TR-FRET Assay for TEAD1(210-426) Binding to YAP(50-100); settings: His-TEAD 10 nM, YAP-Biotin peptide 50 nM
How it was run: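 10 nM His-TEAD1 preincubated 30 min at room temperature with compound (3-fold dilutions, 12 points, 1% DMSO), then 50 nM biotin-YAP peptide added.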

Sequence of TEAD1(210-426) binding to YAP(50-100) (P28347 209-426): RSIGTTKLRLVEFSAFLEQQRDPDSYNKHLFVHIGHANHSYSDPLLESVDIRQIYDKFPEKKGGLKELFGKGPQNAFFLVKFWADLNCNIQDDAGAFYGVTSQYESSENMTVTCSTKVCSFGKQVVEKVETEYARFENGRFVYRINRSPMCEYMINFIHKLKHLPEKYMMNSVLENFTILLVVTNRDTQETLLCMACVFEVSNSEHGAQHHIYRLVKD

Row | Compound | pIC50 (MSTO-211H cells) | pIC50 [1]
1 | COCCN(C)c1nccc(Cn2ccc(-c3nn(-c4ccc(C(F)(F)F)cc4)c4c(F)cccc34)cc2=O)n1 [Compound 147, 4-(7-fluoro-1-(4-(trifluoromethyl)phenyl)-1H-indazol-3-yl)-1-((2-((2-methoxyethyl)(methyl)amino)pyrimidin-4-yl)methyl)pyridin-2(1H)-one] | ≥ 6.00 | ≥ 7.00
2 | O=c1cc(-c2nn(-c3ccc(C(F)(F)F)cc3)c3c(Cl)cccc23)ccn1Cc1ccnc(NCCO)n1 [Compound 148, 4-(7-chloro-1-(4-(trifluoromethyl)phenyl)-1H-indazol-3-yl)-1-((2-((2hydroxyethyl)amino)pyrimidin-4-yl)methyl)pyridin-2(1H)-one] | ≥ 6.00 | ≥ 7.00
3 | CNc1nccc(Cn2ccc(-c3nn(-c4ccc(C5CC5)cc4)c4c(F)cccc34)cc2=O)n1 [Compound 149, 4-(1-(4-cyclopropylphenyl)-7-fluoro-1H-indazol-3-yl)-1-((2-(methylamino)pyrimidin-4-yl)methyl)pyridin-2(1H)-one] | ≥ 6.00 | ≥ 7.00
4 | COCCNc1nccc(Cn2ccc(-c3nn(-c4ccc(OC(F)(F)F)cc4)c4c(F)cccc34)cc2=O)n1 [Compound 150, 4-(7-fluoro-1-(4-(trifluoromethoxy)phenyl)-1H-indazol-3-yl)-1-((2-((2-methoxyethyl)amino)pyrimidin-4-yl)methyl)pyridin-2(1H)-one] | ≥ 6.00 | ≥ 7.00
5 | O=c1cc(-c2nn(-c3ccc(OC(F)(F)F)cc3)c3c(F)cccc23)ccn1Cc1ccnc(NCCO)n1 [Compound 151, 4-(7-fluoro-1-(4-(trifluoromethoxy)phenyl)-1H-indazol-3-yl)-1-((2-((2-hydroxyethyl)amino)pyrimidin-4-yl)methyl)pyridin-2(1H)-one] | ≥ 6.00 | ≥ 7.00
6 | CNc1nccc(Cn2ccc(-c3nn(-c4ccc(C5COC5)cc4)c4c(F)cccc34)cc2=O)n1 [Compound 152] | ≥ 6.00 | ≥ 7.00
7 | O=c1cc(-c2nn(-c3ccc(C(F)(F)F)cc3)c3cccc(F)c23)ccn1Cc1ccnc(OCCO)n1 [Compound 153, 4-(4-fluoro-1-(4-(trifluoromethyl)phenyl)-1H-indazol-3-yl)-1-((2-(2-hydroxyethoxy)pyrimidin-4-yl)methyl)pyridin-2(1H)-one] | ≥ 6.00 | ≥ 7.00
8 | COCCOc1nccc(Cn2ccc(-c3nn(-c4ccc(C(F)(F)F)cc4)c4cccc(F)c34)cc2=O)n1 [Compound 154, 4-(4-fluoro-1-(4-(trifluoromethyl)phenyl)-1H-indazol-3-yl)-1-((2-(2-methoxyethoxy)pyrimidin-4-yl)methyl)pyridin-2(1H)-one] | ≥ 6.00 | ≥ 7.00
9 | COCCN(C)c1nccc(Cn2ccc(-c3nn(-c4ccc(C(F)(F)F)cc4)c4cccc(F)c34)cc2=O)n1 [Compound 155, 4-(4-fluoro-1-(4-(trifluoromethyl)phenyl)-1H-indazol-3-yl)-1-((2-((2-methoxyethyl)(methyl)amino)pyrimidin-4-yl)methyl)pyridin-2(1H)-one] | ≥ 6.00 | 6.00 to 7.00
10 | O=c1cc(-c2nn(-c3ccc(C(F)(F)F)cc3)c3c(F)cccc23)ccn1Cc1ccnc(Cl)n1 [Compound 157, 1-((2-chloropyrimidin-4-yl)methyl)-4-(7-fluoro-1-(4-(trifluoromethyl)phenyl)-1H-indazol-3-yl)pyridin-2(1H)-one] | ≥ 6.00 | ≥ 7.00
11 | CNc1nccc(Cn2ccc(-c3nn(-c4ccc(C(F)(F)F)cc4)c4cccc(F)c34)cc2=O)n1 [Compound 158, 4-(1-(4-((difluoro-13-methyl)-12-fluoranyl)phenyl)-4-fluoro-1H-indazol-3-yl)-1-((2-(methylamino)pyrimidin-4-yl)methyl)pyridin-2(1H)-one] | ≥ 6.00 | ≥ 7.00
